Experimental data from patent US10227560B2, “Biomimetic support for three-dimensional cell culturing, method for manufacturing same, and use thereof” (PUSAN NATIONAL UNIVERSITY INDUSTRY-UNIVERSITY COOPERATION …, priority 2014, dated 2019).
Read-outs that look alike come from different tables or passages of the source.

Assays:
[1] = test system: CREC cells; details: 18 to 24 hours
Protocol: The cells of Reference Example 1 were dispensed in a 96-well plate at a concentration of 1×10^4 cells/well for R182 and A2780 cells together with 0.1 mL of 10% FBS containing cell medium, and a concentration of 1×10^5 cells/well for R182 and A2780 cells, and the cells were cultured for 24 hours and then cultured for 12-16 hours in the absence of FBS.

[2] = test system: human ovarian cancer cells A2780
Protocol: (§1) The cytotoxicity assay was performed by the conventional method [H. Lee et al., Regul. Pept. (2008), 147, 72-81]. The cells of Reference Example 1 were dispensed in a 96-well plate at a concentration of 1×10^4 cells/well for R182 and A2780 cells together with 0.1 mL of 10% FBS containing cell medium, and a concentration of 1×10^5 cells/well for […] the cells were cultured for 24 hours and then cultured for 12-16 hours in the absence of FBS.
(§2) The cultured cells were treated with various concentrations of calcium chloride (CaCl2, Sigma-Aldrich) at concentrations of 10, 50, 100, 200 and 300 mM and cultured for 18 to 24 hours to perform WST-1 assay (EZ-Cytox Cell Viability Assay kit, Daeillab Service, Seoul, Korea) for cell cytotoxicity assay.
(§3) WST-1 reagent of 10 μL was added to each well and incubated for 2 hours in a humidified incubator at 37° C. and 5% CO2 and the absorbance was measured at 450 nm using a microplate reader (Tecan, M, Switzerland) to calculate the percent growth rate.

[3] = test system: human ovarian cancer cell R182
Protocol: as §1, §2, §3

[4] = test system: mouse T cell lymphoma cells (EL4); details: 18 to 24 hours
Protocol: as §1, §2, §3

[5] = test system: human ovarian cancer cell A2780; test: cells; details: for viability at 0.5 µM: A2780, 24 h
Protocol: In the case of A2780 cells, 0.125 wt % agarose-7.5 wt % marine collagen-1 wt % alginate composite hydrogel support was prepared in the same manner as in Example 9, the cells were added to 96-well plate to induce the gelation at 4° C. for 5-10 minutes, and then cultured in the medium. In addition, the conventional two-dimensional cell culture was also performed as a control for three-dimensional cell culture.
(§5) In order to perform a sensitivity assay for an anticancer agent, EL4 and human ovarian cancer cell A2780 were cultured in an agarose-marine collagen-alginate composite hydrogel support in a two-dimensional and three-dimensional environment and an efficacy test for an anticancer agent was performed. EL4 cells cultured in two-dimensional culture conditions and EL4 cells cultured three-dimensionally in an agarose-marine collagen-alginate composite hydrogel support were treated with 5 μM doxorubicin (5927, cell signaling) and 100 μM resveratrol and the human ovarian cancer cell A2780 was treated with paclitaxel at a concentration of 0.5 μM for 24 hours, and then with WST-1 reagent, and absorbance was measured at 450 nm by a microplate reader to calculate percent growth rate.
In addition, 10 and 20 μM paclitaxel, and 30 and 50 μM curcumin were added to A2780 cells cultured in two-dimensional condition and A2780 cells cultured three-dimensionally for 7 days in agarose-marine collagen-alginate composite hydrogel supports, and the control group was treated with DMSO at the same concentration as the experimental group. The WST-1 reagent was then treated and the absorbance at 450 nm was measured by a microplate reader to calculate the percentage growth rate.

[6] = test system: human non-small cell lung cancer (NCI-H1703) cells; test: Anticancer drug susceptibility, WST-1 cell viability, 2D culture vs 3D culture on Fc 4%-Sc 50% fish collagen/PCL nanofiber support; format: cell-based; details: 3 μM doxorubicin, read-out: cell viability as compared with the control group
Protocol: (§4) First, an Fc 4%-Sc 50% fish collagen/PCL nanofiber support prepared in the same manner as in Example 1, was placed in a 96-well plate and NCI-H1703 and DU-145 cells were inoculated at a concentration of 5×10^4 cells/well. […] The results are expressed as mean±standard deviation (SD) for each analysis. Statistical analysis was performed using a two-tailed t-test and statistical significance was evaluated based on P<0.05.

[7] = test system: EL4 cells; test: cells; details: Mus musculus
Protocol: In the case of EL4 cells, 0.125 wt % agarose-10 wt % marine collagen-1 wt % alginate composite hydrogel support was prepared in the same manner as in Example 9, and cells were added, and the mixture liquid was added to a 1 mL syringe with 80 μL to induce the gelation at 4° C. for 5-10 minutes, and then cultured in a 48-well plate.
as §5

[8] = test system: prostate cancer cell line DU-145; test: Anticancer drug susceptibility, WST-1 cell viability, 2D culture vs 3D culture on Fc 4%-Sc 50% fish collagen/PCL nanofiber support; format: cell-based; details: Homo sapiens, 3 μM paclitaxel, read-out: cell viability as compared with the control group
Protocol: as §4

[9] = EL4, read-out: cell viability compared to the control group
[10] = EL4, read-out: viability as compared with the control group

With [Ca+2].[Cl-].[Cl-] [CaCl2, calcium chloride] the “dose-dependent cytotoxic effect (WST-1, percent growth rate)” value ([1]; 10 mM) was 81.1%, the “dose-dependent cytotoxic effect (WST-1, percent growth rate)” value ([1]; 50 mM) was 36.8% and the “dose-dependent cytotoxic effect (WST-1, percent growth rate)” value ([1]; 100 mM) was 23.0%. The “dose-dependent cytotoxic effect (WST-1, percent growth rate)” value ([1]; 200 mM) was 9.9%, the “dose-dependent cytotoxic effect (WST-1, percent growth rate)” value ([1]; 300 mM) was 10.3% and the “dose-dependent cytotoxic effect (WST-1, percent growth rate)” value ([2]; 50 mM) was 74.9%. The “dose-dependent cytotoxic effect (WST-1, percent growth rate)” value ([2]; 100 mM) was 65.9%, the “dose-dependent cytotoxic effect (WST-1, percent growth rate)” value ([2]; 150 mM) was 41.5% and the “dose-dependent cytotoxic effect (WST-1, percent growth rate)” value ([2]; 200 mM) was 37.9%. The “dose-dependent cytotoxic effect (WST-1, percent growth rate)” value ([2]; 250 mM) was 39.5%, the “dose-dependent cytotoxic effect (WST-1, percent growth rate)” value ([2]; 300 mM) was 43.7% and the “cytotoxic effect (WST-1, percent growth rate)” value ([3]; 50 mM) was 34.1%. For the same compound, the “cytotoxic effect (WST-1, percent growth rate)” value ([3]; 100 mM) was 26.4%, the “cytotoxic effect (WST-1, percent growth rate)” value ([3]; 150 mM) was 21.1% and the “cytotoxic effect (WST-1, percent growth rate)” value ([3]; 200 mM) was 21.4%. For the same compound, the “cytotoxic effect (WST-1, percent growth rate)” value ([3]; 250 mM) was 24.9%, the “cytotoxic effect (WST-1, percent growth rate)” value ([3]; 300 mM) was 25.6% and the “dose-dependent cytotoxic effect (WST-1, percent growth rate)” value ([4]; 10 mM) was 101.3%. For the same compound, the “dose-dependent cytotoxic effect (WST-1, percent growth rate)” value ([4]; 50 mM) was 59.2%, the “dose-dependent cytotoxic effect (WST-1, percent growth rate)” value ([4]; 100 mM) was 25.4% and the “dose-dependent cytotoxic effect (WST-1, percent growth rate)” value ([4]; 200 mM) was 11.2%. For the same compound, the “dose-dependent cytotoxic effect (WST-1, percent growth rate)” value ([4]; 300 mM) was 9.7%.
COc1cc(/C=C/C(=O)CC(=O)/C=C/c2ccc(O)c(OC)c2)ccc1O [curcumin] showed a viability at 30 µM ([5]; A2780, read-out: cell viability, 30 μM curcumin, second pair of values, printed again as two-dimensional environment) of 95%, a viability at 30 µM ([5]; A2780, read-out: cell viability, 30 μM curcumin, two-dimensional environment) of 42.5% and a viability at 50 µM ([5]; A2780, read-out: cell viability, 50 μM curcumin, second pair of values, printed again as two-dimensional environment) of 82.4%. For the same compound, the viability at 50 µM ([5]; A2780, read-out: cell viability, 50 μM curcumin, two-dimensional environment) was 36.7%.
For COc1cccc2c1C(=O)c1c(O)c3c(c(O)c1C2=O)C[C@@](O)(C(=O)CO)C[C@@H]3O[C@H]1C[C@H](N)[C@H](O)[C@H](C)O1 [doxorubicin], the viability at 3 µM ([6]; NCI-H1703, 24 h, 24 hours, three-dimensional environment (Fc 4%-Sc 50% support)) was 94.5%, the viability at 3 µM ([6]; NCI-H1703, 24 h, 24 hours, two-dimensional environment) was 55.1% and the viability at 3 µM ([6]; NCI-H1703, 48 h, 48 hours, three-dimensional environment (Fc 4%-Sc 50% support)) was 95.7%. For the same compound, the viability at 3 µM ([6]; NCI-H1703, 48 h, 48 hours, two-dimensional environment) was 40.8%, the viability at 5 µM [7, 9] was 71.4% and the viability at 5 µM [7, 10] was 58.6%.
Work on CC(=O)O[C@H]1C(=O)[C@@]2(C)[C@H]([C@H](OC(=O)c3ccccc3)[C@]3(O)C[C@H](OC(=O)[C@H](O)[C@@H](NC(=O)c4ccccc4)c4ccccc4)C(C)=C1C3(C)C)[C@]1(OC(C)=O)CO[C@@H]1C[C@@H]2O [paclitaxel] yielded a viability at 3 µM ([8]; DU-145, 24 h, 24 hours, three-dimensional environment (Fc 4%-Sc 50% support)) of 93.5%, a viability at 3 µM ([8]; DU-145, 24 h, 24 hours, two-dimensional environment) of 50.2% and a viability at 3 µM ([8]; DU-145, 48 h, 48 hours, three-dimensional environment (Fc 4%-Sc 50% support)) of 64.2%. The viability at 3 µM ([8]; DU-145, 48 h, 48 hours, two-dimensional environment) was 14.6%, the viability at 10 µM ([5]; A2780, 10 μM paclitaxel, two-dimensional environment) was 12.3% and the viability at 20 µM ([5]; A2780, 20 μM paclitaxel, two-dimensional environment) was 6.4%. The viability at 0.5 µM ([5]; read-out: cell viability, 0.5 μM paclitaxel, 24 hours, three-dimensional environment (hydrogel support)) was 94.2%, the viability at 0.5 µM ([5]; read-out: viability as compared with the control group, 0.5 μM paclitaxel, 24 hours, two-dimensional environment) was 60.9% and the viability at 10 µM ([5]; A2780, 168 h, 10 μM paclitaxel, three-dimensional environment (cultured 7 days in hydrogel support)) was 40.2%. The viability at 20 µM ([5]; A2780, 168 h, 20 μM paclitaxel, three-dimensional environment (cultured 7 days in hydrogel support)) was 51.4%.
For Oc1ccc(C=Cc2cc(O)cc(O)c2)cc1 [resveratrol], the viability at 100 µM [7, 9] was 93.5% and the viability at 100 µM [7, 10] was 50.2%.
